This note sets out measurements from ChEMBL document CHEMBL1201862, “PubChem BioAssay data set” (2004).

Among the test systems are ACHN; LOX IMVI; HOP-92; SW-620; TK-10; SNB-75; SNB-19; MOLT-4; SK-MEL-28; HCC 2998; CAKI-1; IGROV-1; U-251; HOP-62; UO-31; NCI-H23; K562; SK-MEL-2; NCI-H460; RPMI-8226.
Holding throughout (assay): growth of human tumour cells (NCI), 48 h

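Method: 48-hour compound exposure of cells in 96-well plates, five concentrations, linear interpolation of endpoints. GI50 = concentration required for 50% inhibition of growth.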 The source made the active and inactive calls. No stated cut-off is given here; in the data, active = GI50 up to about 1.1 µM and inactive = higher. *1 amine or outer side, *2 acyl side, *3 side chain or, on linkers, in order; H or OH if unused. Where a SMILES comes first, the peptide text is derived from it. Bridges are numbered along the chain shown (N, C = ends). Roman numbers before positions name the chains, in order. [ ]: non-standard residue; d: D form. Actinocin(9to1) = Cc1c2oc3c(C)ccc(C(=O)[*:1])c3nc-2c(C(=O)[*:2])c(N)c1=O; NMeV = CN[CH](C(=O)O)C(C)C; Sar = CNCC(=O)O

With `COc1cc(=O)oc(/C=C/C=O)c1C`, the GI50 was 19.2 µM (inactive) in the experiment with ACHN; 5.2 µM (inactive) with LOX IMVI; 26.9 µM (inactive) in the experiment on HOP-92; 19.4 µM (inactive) with SW-620; 31.2 µM (inactive) in the experiment with TK-10; 16.3 µM (inactive) with SNB-75. Besides, the GI50 in the experiment on SNB-19 was 14.8 µM (inactive); with MOLT-4, 27.5 µM (inactive); in the experiment with SK-MEL-28, 12.6 µM (inactive); in the experiment on HCC 2998, 17.9 µM (inactive); in the experiment with CAKI-1 it was 33 µM (inactive); with IGROV-1 it was 30.4 µM (inactive). Further, the GI50 in the experiment with U-251 was 14.3 µM (inactive); in the experiment on HOP-62 it was 19.5 µM (inactive); in the experiment on UO-31, 20.8 µM (inactive); with NCI-H23, 21.9 µM (inactive); in the experiment on K562 it was 8.53 µM (inactive).

In the case of `CN(C)N1C(=O)C(=O)N(c2cccc3ccccc23)C1=O`, the GI50 in the experiment with ACHN, in the experiment on LOX IMVI, in the experiment with SW-620, in the experiment with TK-10, in the experiment on SNB-75 and with SNB-19 was > 10 µM (inactive) throughout. The GI50 in the experiment on MOLT-4, with SK-MEL-28, with HCC 2998, with SK-MEL-2, in the experiment on CAKI-1 and in the experiment on IGROV-1 was > 10 µM (inactive) throughout. The GI50 in the experiment with U-251, in the experiment on HOP-62, with NCI-H460, in the experiment with UO-31, in the experiment on RPMI-8226 and in the experiment on NCI-H23 was > 10 µM (inactive) throughout. In the experiment on K562, the GI50 is > 10 µM (inactive).

As for `CC1(CO)COS(=O)OC1` (stereo not drawn), the GI50 in the experiment on ACHN, in the experiment with LOX IMVI, in the experiment with HOP-92, in the experiment with SW-620, in the experiment with TK-10 and with SNB-75 was > 100 µM (inactive) throughout. The GI50 with SNB-19, in the experiment on MOLT-4, with SK-MEL-28, in the experiment with HCC 2998, in the experiment with U-251 and with NCI-H460 was > 100 µM (inactive) throughout. In addition, the GI50 in the experiment with UO-31 and in the experiment with NCI-H23 was > 100 µM (inactive) each time.

For the compound `CC1=NC(=O)CNN1C1=NNC2(C(=O)N1)c1ccccc1-c1ccccc12`, the GI50 in the experiment on ACHN, in the experiment with LOX IMVI, in the experiment on HOP-92, with SW-620, with TK-10 and with SNB-75 was > 100 µM (inactive) each time. For the same compound, the GI50 in the experiment on SNB-19, with SK-MEL-28, in the experiment with HCC 2998, in the experiment on SK-MEL-2, in the experiment on CAKI-1 and in the experiment with IGROV-1 was > 100 µM (inactive) throughout. The GI50 in the experiment on U-251, in the experiment with HOP-62, in the experiment with NCI-H460, in the experiment on UO-31, in the experiment with NCI-H23 and with K562 was > 100 µM (inactive) throughout.

Take `Cc1c2oc3c(C)ccc(C(=O)NC4C(=O)NC(C(C)O)C(=O)N5CCCC5C(=O)N(C)CC(=O)N(C)C(C(C)C)C(=O)OC4C)c3nc-2c(C(=O)NC2C(=O)NC(C(C)O)C(=O)N3CCCC3C(=O)N(C)CC(=O)N(C)C(C(C)C)C(=O)OC2C)c(N)c1=O` (stereo not drawn) (I: TTP[Sar][NMeV] / II: TTP[Sar][NMeV]; ester I:1-I:C, II:1-II:C; linker I:N-II:N via Actinocin(9to1); configuration not given here): the GI50 in the experiment with ACHN is 0.427 µM (active); in the experiment with LOX IMVI, 0.0493 µM (active); in the experiment on SW-620, 0.067 µM (active); in the experiment on TK-10, 0.643 µM (active); with SNB-75, 0.198 µM (active); in the experiment on SNB-19, 0.147 µM (active). Also, the GI50 in the experiment on MOLT-4 is 0.0527 µM (active); in the experiment on SK-MEL-28, 0.147 µM (active); in the experiment with HCC 2998, 1.54 µM (inactive); in the experiment with SK-MEL-2 it was 0.133 µM (active); in the experiment with CAKI-1, 4.07 µM (inactive); in the experiment on IGROV-1, 0.135 µM (active). The GI50 in the experiment with U-251 was 0.0904 µM (active); with HOP-62 it was 0.498 µM (active); in the experiment on NCI-H460, 0.0818 µM (active); with UO-31 it was 2 µM (inactive); in the experiment on RPMI-8226, 0.0365 µM (active); in the experiment on NCI-H23, 0.274 µM (active). In the experiment with K562, the GI50 was 0.0448 µM (active).

Take `Nc1ccc2cc(S(=O)(=O)O)cc(O)c2c1/N=N/c1ccc(NC(=O)Nc2ccc(/N=N/c3c(N)ccc4cc(S(=O)(=O)O)cc(O)c34)c(S(=O)(=O)O)c2)cc1S(=O)(=O)O`: the GI50 in the experiment on LOX IMVI is > 100 µM (inactive); with HOP-92, > 54.8 µM (inactive); in the experiment on SW-620, > 100 µM (inactive); in the experiment on SNB-75, 95.9 µM (inactive); with MOLT-4, > 100 µM (inactive); in the experiment with SK-MEL-28, > 100 µM (inactive). Moreover, the GI50 in the experiment with HCC 2998, with SK-MEL-2, in the experiment with IGROV-1, with U-251, with HOP-62 and in the experiment with NCI-H460 was > 100 µM (inactive) each time. The GI50 in the experiment on UO-31, with NCI-H23 and in the experiment on K562 was > 100 µM (inactive) each time.

`CN(C)CC1CCC/C(=C\c2ccccc2)C1=O` (stereo not drawn): the GI50 in the experiment with ACHN was 3.5 µM (inactive); with LOX IMVI, 1.69 µM (inactive); with HOP-92, 2.44 µM (inactive); in the experiment with SW-620, 1.55 µM (inactive); in the experiment with TK-10, 2.36 µM (inactive); in the experiment on SNB-75, 13.8 µM (inactive). Also, the GI50 in the experiment with SNB-19 is 16.2 µM (inactive); with MOLT-4 it was 4.6 µM (inactive); in the experiment on SK-MEL-28, 2.23 µM (inactive); in the experiment with HCC 2998 it was 15.5 µM (inactive); in the experiment on SK-MEL-2, 5.5 µM (inactive); in the experiment on CAKI-1 it was 1.77 µM (inactive). For the same compound, the GI50 with IGROV-1 is 3.74 µM (inactive); in the experiment on U-251, 15.4 µM (inactive); in the experiment with HOP-62, 19.9 µM (inactive); in the experiment with NCI-H460 it was 3.1 µM (inactive); with UO-31, 2.32 µM (inactive); in the experiment with NCI-H23 it was 10.2 µM (inactive).

Turning to `NN=C(S)Nc1cccc(Cl)c1`, the GI50 in the experiment on ACHN, with LOX IMVI, with SW-620, in the experiment with TK-10, with SNB-75 and in the experiment on SNB-19 was > 100 µM (inactive) in each case. Further, the GI50 was 35.4 µM (inactive) in the experiment on MOLT-4; > 100 µM (inactive) in the experiment with SK-MEL-28; 64.7 µM (inactive) in the experiment with HCC 2998; 79.4 µM (inactive) with SK-MEL-2; > 100 µM (inactive) in the experiment on CAKI-1; > 100 µM (inactive) with IGROV-1. Besides, the GI50 in the experiment with U-251 was > 100 µM (inactive); in the experiment with HOP-62, > 100 µM (inactive); in the experiment with NCI-H460, 64.1 µM (inactive); in the experiment on UO-31, > 100 µM (inactive); in the experiment on RPMI-8226, > 100 µM (inactive); in the experiment with NCI-H23, > 100 µM (inactive). In the experiment on K562, the GI50 is 36.6 µM (inactive).

On to `CC1(C)[C@H](C(=O)O)N2C(=O)[C@@H](NS(=O)(=O)c3ccc([N+](=O)[O-])cc3)[C@H]2S1(=O)=O`, for which the GI50 in the experiment with ACHN, with LOX IMVI, with HOP-92, in the experiment with SW-620, with TK-10 and with SNB-75 was > 100 µM (inactive) each time. Further, the GI50 in the experiment on SNB-19, in the experiment with MOLT-4, in the experiment with SK-MEL-28, in the experiment on HCC 2998, in the experiment on SK-MEL-2 and in the experiment on CAKI-1 was > 100 µM (inactive) in each case. Moreover, the GI50 in the experiment on IGROV-1, in the experiment on U-251, in the experiment on HOP-62, in the experiment with NCI-H460, in the experiment with UO-31 and in the experiment on NCI-H23 was > 100 µM (inactive) in each case. In addition, the GI50 in the experiment with K562 is > 100 µM (inactive).

For `FC(F)(F)c1ccc2c(c1)nc1n2C(c2c(Cl)cccc2Cl)SC1` (stereo not drawn), the GI50 in the experiment on ACHN is 15.9 µM (inactive); in the experiment with LOX IMVI, 25.9 µM (inactive); with HOP-92, 13.6 µM (inactive); in the experiment on SW-620 it was 24.3 µM (inactive); in the experiment with TK-10, 22 µM (inactive); with SNB-75, 15.1 µM (inactive). Further, the GI50 with SNB-19 was 19.1 µM (inactive); in the experiment on MOLT-4 it was 38.7 µM (inactive); in the experiment on SK-MEL-28, 14.4 µM (inactive); in the experiment with HCC 2998 it was 21.8 µM (inactive); in the experiment with SK-MEL-2, 17.7 µM (inactive); with CAKI-1, 14.9 µM (inactive). Further, the GI50 in the experiment with IGROV-1 was 17.3 µM (inactive); with U-251 it was 19.3 µM (inactive); in the experiment with HOP-62, 15.4 µM (inactive); in the experiment on NCI-H460 it was 16.8 µM (inactive); with UO-31 it was 15.4 µM (inactive); in the experiment with NCI-H23 it was 20.5 µM (inactive).

Consider `O=C(CCC(NC(=O)OCc1ccccc1)C(=O)OCc1ccccc1)Nc1cccc(OCc2ccccc2)c1` (stereo not drawn), for which the GI50 was 29.7 µM (inactive) with ACHN; 19.3 µM (inactive) in the experiment on LOX IMVI; 25 µM (inactive) with HOP-92; 33.6 µM (inactive) in the experiment with SW-620; 29.4 µM (inactive) in the experiment on TK-10; 35.6 µM (inactive) with SNB-75. Further, the GI50 is 51.3 µM (inactive) in the experiment with SNB-19; 26.4 µM (inactive) in the experiment with MOLT-4; 40.4 µM (inactive) in the experiment on SK-MEL-28; 42.7 µM (inactive) in the experiment with HCC 2998; 31.2 µM (inactive) in the experiment on CAKI-1; 30.3 µM (inactive) with IGROV-1. The GI50 in the experiment on U-251 was 30.3 µM (inactive); in the experiment with HOP-62, 28.6 µM (inactive); with NCI-H460, 23.6 µM (inactive); in the experiment with NCI-H23, 20.3 µM (inactive); in the experiment on K562, 24.2 µM (inactive).
